± gives the standard deviation of the averaged measurements.
Test system: HepaRG
Assay: LDH release cytotoxicity, % of total lysis control; higher = more cytotoxic
Conditions: 48 h
Summary of the method: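 HepaRG cells from a single lot were plated on collagen I-coated 96-well plates and treated in duplicate for 48 h with eight-point half-log series of test chemicals, starting at 100 µM, in serum-free induction medium containing 0.5% DMSO. Total lysis wells were given 0.1% Triton X. LDH released into 50 µL of spent medium was measured as resorufin fluorescence with CytoTox-ONE on a Tecan Safire. Percent cytotoxicity was normalized to on-plate vehicle and total lysis controls and then averaged across duplicates.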

| Compound | LDH release cytotoxicity (0.1 µM) | LDH release cytotoxicity (1 µM) | LDH release cytotoxicity (3.16228 µM) | LDH release cytotoxicity (10 µM) | LDH release cytotoxicity (31.6228 µM) | LDH release cytotoxicity (100 µM) | LDH release cytotoxicity (0.03162 µM) | LDH release cytotoxicity (0.3162278 µM) | other results |
| --- | --- | --- | --- | --- | --- | --- | --- | --- | --- |
| O=C(O)c1cccnc1 [Nicotinic acid] |  |  |  |  |  |  |  |  | LDH release cytotoxicity (0.0327296 µM): -1.39 ± 0.94%; LDH release cytotoxicity (0.1035 µM): -1.35 ± 0.33%; LDH release cytotoxicity (0.327296 µM): -1.95 ± 0.85%; LDH release cytotoxicity (1.035 µM): -1.67 ± 0.46%; LDH release cytotoxicity (3.27296 µM): -1.83 ± 0.44%; LDH release cytotoxicity (10.35 µM): -0.596 ± 0.74%; LDH release cytotoxicity (32.729574 µM): -0.819 ± 0.39%; LDH release cytotoxicity (103.5 µM): 0.214 ± 0.71% |
| Clc1cccc(C(Cl)(Cl)Cl)n1 [Nitrapyrin] | -0.859 ± 0.33% | -2.43 ± 0.29% | -2.02 ± 0.78% | -1.29 ± 0.76% | -1.63 ± 1.3% | 1.2 ± 0.065% |  |  | LDH release cytotoxicity (0.031623 µM): -0.0337 ± 1.6%; LDH release cytotoxicity (0.316228 µM): -1.7 ± 1.4% |
| O=C(O)CN(CC(=O)O)CC(=O)O [Nitrilotriacetic acid] | -2.54 ± 0.17% | -2.18 ± 1.1% | -1.64 ± 0.13% | -2.38 ± 0.72% | -1.51 ± 0.34% | -0.286 ± 0.059% | -0.992 ± 1.1% | -2.46 ± 0.55% |  |
| O=[N+]([O-])c1ccccc1 [Nitrobenzene] | -0.746 ± 0.34% | -0.928 ± 0.55% | -1.24 ± 0.27% | -0.372 ± 0.35% | -0.298 ± 1.3% | 1.13 ± 0.81% | -0.035 ± 0.65% | -0.739 ± 0.36% |  |
| O=[N+]([O-])c1ccc(Oc2ccc(Cl)cc2Cl)cc1 [Nitrofen] | -0.97 ± 0.56% | -0.821 ± 0.57% | -0.947 ± 1% | 0.734 ± 0.22% | 0.996 ± 0.67% | 3.046 ± 0.0066% | 0.322 ± 3% | -0.303 ± 0.48% |  |
| O=C1CN(N=Cc2ccc([N+](=O)[O-])o2)C(=O)N1 [Nitrofurantoin] | -1.36 ± 0.74% | -0.456 ± 1.2% | -1.09 ± 0.89% | -0.861 ± 0.77% | -0.189 ± 0.6% | 2.15 ± 0.92% | -0.977 ± 0.36% | -1.01 ± 0.51% |  |
| NC(=O)N=NCc1ccc([N+](=O)[O-])o1 [Nitrofurazone] | -1.51 ± 0.4% | -1.87 ± 0.52% | -1.76 ± 0.92% | -0.788 ± 0.29% | -0.997 ± 0.33% | 0.128 ± 0.43% | -0.299 ± 0.59% | -1.48 ± 0.51% |  |
| CCCCCCCCC(=O)O [Nonanoic acid] | -1.24 ± 0.71% | -1.56 ± 0.047% | -2.05 ± 0.21% | -1.39 ± 0.62% | -1.11 ± 0.22% | 3.09 ± 0.27% | -1.22 ± 1.1% | -0.597 ± 0.11% |  |
| C#CC1(O)CCC2C3CCC4=CC(=O)CCC4C3CCC21C (configuration not stated) [Norethindrone] | 0.00115 ± 0.14% | -0.047 ± 0.53% | 0.727 ± 1% | 0.906 ± 1.7% | 2.7 ± 1.3% | 2.69 ± 0.34% | -0.43 ± 0.47% | -0.373 ± 0.45% |  |
| CN=C1C=NN(c2cccc(C(F)(F)F)c2)C(=O)C1Cl (configuration not stated) [Norflurazon] | -1.08 ± 0.48% | 0.0859 ± 2.5% | -1.2 ± 0.27% | -0.411 ± 0.49% | 0.0481 ± 1.5% | 1.81 ± 1.8% | -0.275 ± 1.1% | -0.0751 ± 2% |  |
| O=C(NC(=O)c1c(F)cccc1F)Nc1ccc(OC(F)(F)C(F)OC(F)(F)F)c(Cl)c1 (configuration not stated) [Novaluron] | -3.48 ± 0.26% | -4.4 ± 1.3% | -3.9 ± 0.22% | -4.16 ± 0.54% | -1.88 ± 0.94% | 4.68 ± 1.6% |  |  | LDH release cytotoxicity (0.031623 µM): -0.704 ± 1.1%; LDH release cytotoxicity (0.316228 µM): -3.95 ± 0.86% |
| CCCCCCCCOc1ccc(C(=O)c2ccccc2)c(O)c1 [Octabenzone] | -1.09 ± 0.34% | 0.7228 ± 0.0064% | 0.706 ± 0.87% | 0.678 ± 2.1% | 1.22 ± 0.62% | 1.8 ± 0.62% | -0.784 ± 0.38% | -0.164 ± 0.29% |  |
| CCCCCCCCCCCCCCCCCC(=O)O [Octadecanoic acid] | -1.75 ± 1.4% | -1.46 ± 0.77% | -1.45 ± 0.023% | -0.538 ± 0.059% | -0.0805 ± 0.49% | 0.581 ± 0.81% | -0.507 ± 0.67% | -1.54 ± 0.31% |  |
| C[Si]1(C)O[Si](C)(C)O[Si](C)(C)O[Si](C)(C)O1 [Octamethylcyclotetrasiloxane] | -2.19 ± 2.6% | -1.15 ± 0.56% | -1.27 ± 0.5% | -0.835 ± 0.65% | -1.36 ± 1.4% | 1.7 ± 1.9% | -1.66 ± 0.14% | -0.981 ± 0.89% |  |
| CCCCCCCC=O [Octanal] | -2.49 ± 0.035% | -1.59 ± 0.17% | -1.99 ± 0.053% | -1.65 ± 0.19% | -0.367 ± 0.076% | -0.293 ± 0.53% | -2.27 ± 0.13% | -2.18 ± 1.1% |  |
| CCCCCCCC(=O)O [Octanoic acid] | -1.02 ± 0.23% | -0.537 ± 0.81% | -0.391 ± 0.73% | -0.933 ± 1.1% | -0.626 ± 0.1% | 0.799 ± 0.12% | -1.17 ± 0.13% | -0.609 ± 0.43% |  |
| CCCCCCCCn1sccc1=O [Octhilinone] |  |  |  |  |  |  |  |  | LDH release cytotoxicity (0.0328877 µM): -1.41 ± 0.74%; LDH release cytotoxicity (0.104 µM): -1.11 ± 0.18%; LDH release cytotoxicity (0.328877 µM): -1.8 ± 0.29%; LDH release cytotoxicity (1.04 µM): -2.06 ± 0.24%; LDH release cytotoxicity (3.28877 µM): -1.28 ± 0.083%; LDH release cytotoxicity (10.4 µM): -1.43 ± 0.041%; LDH release cytotoxicity (32.8877 µM): -0.0918 ± 0.75%; LDH release cytotoxicity (104 µM): 41.4 ± 8.2% |
| CC(C)(C)CC(C)(C)c1ccc(O)c(-n2nc3ccccc3n2)c1 [Octrizole] | -2.89 ± 0.71% | -3.09 ± 0.49% | -3.1 ± 0.38% | -2.49 ± 0.85% | -1.9 ± 1.4% | -2.37 ± 0.56% | -2.72 ± 1.6% | -2.68 ± 0.86% |  |
| CCCCCCCCOC(=O)c1cc(O)c(O)c(O)c1 [Octyl gallate] | -0.159 ± 0.23% | -0.776 ± 1.1% | 0.219 ± 0.33% | -0.238 ± 0.52% | -1.86 ± 0.4% | 2.05 ± 1.3% | -1.14 ± 0.66% | -0.124 ± 0.33% |  |

From the supplement of paper PMC7840683
